We go through 1 molecule from US20220184222A1, “BICYCLE TOXIN CONJUGATES AND USES THEREOF” (BicycleTx Limited, priority 2019, published 2022).

This assay has as its system PC-3M-luc-C6 human prostate carcinoma. As to the kind of experiment: Intracardially implanted PC-3M-Luc-C6 metastatic model, BLI and survival (Example 6). The class given is in vivo, Mouse. The settings on record: for Day 26 T/C: BLI total bone signal; for tumor growth delay: evaluation size 9.0E+07 p/s. The protocol:
The purpose of this study was to evaluate the efficacy and overall impact of Bicycle toxin conjugate BT5528 against established intracardially implanted PC-3M-luc-C6 human prostate carcinoma in male nude mice, with treatment regimens starting at different disease stages (Day 14 and Day 21). Response was monitored using bioluminescence imaging (BLI) on Days 14, 21, 28, 35, and 42 coupled with traditional survival endpoints.
BT5528: • Formulation pH: 5.4 • High Dose Formulation: 0.15 mg/mL • Vehicle: 50 mM Acetate, 10% Sucrose • Storage: 4° C. • Dose volume: 0.01 mL/g
All procedures carried out in this experiment were conducted in compliance with the applicable laws, regulations and guidelines of the National Institutes of Health (NIH). • Species: Mouse • Strain: Envigo nude mice (Hsd:Athymic Nude-Foxn1^nu) • Age at implant: 5-6 weeks • Sex: male • Min weight (D14): 24.9 g • Mean weight (D14): 28.4 g (range of group means, 27.7-28.8 g)
Animals were anesthetized with an IP injection of a ketamine (100 mg/kg)/xylazine (6 mg/kg) cocktail. When the animals were non-responsive (determined by a toe pinch test), 100 μl of cell suspension (3.0 E+06 cells) were drawn into a 1 ml syringe and a 27×½″ gauge needle was then attached. A small air bubble is created in the plunger side of the syringe before injection. The needle was then inserted slowly through the center of the second intercostal space, approximately 3 mm to the left of the sternum and aimed centrally until a continuous pulsation of bright red oxygenated blood into the needle hub was observed. 100 μl of cell suspension was then slowly injected over 5 seconds. A fresh needle and syringe were used for each animal.
Animals were injected with firefly D-luciferin (150 mg/kg) by IP administration according to body weight (0.2 ml/20 g). The success of the intracardiac injections was verified by a one minute bioluminescence scan using large binning (high sensitivity) of the CCD chip immediately after the injection. Mice with signals from the entire body, from snout to base of the tail, were deemed to have been successfully injected, while mice with signals localized to the chest area only, or not fully extending into the snout, were triaged from the study immediately.
All mice were sorted into study groups based on body weight and BLI-derived estimation of tumor burden.
BLI was performed using an IVIS S5 Lumina system (PerkinElmer, Waltham, Mass.). Animals were imaged five at a time under 1-2% isoflurane gas anesthesia. Each mouse was injected IP with 150 mg/kg (15 mg/ml) D-luciferin and imaged in the prone then supine positions 10 minutes after the injection. Large binning of the CCD chip was used, and the exposure time was adjusted (10 seconds to 2 minutes) to obtain at least several hundred counts per image and to avoid saturation of the CCD chip. BLI images were collected on Days 0, 7, 14, 21, 28, 35, 42, 49, 56 and 63 post-implant.
Images were analyzed using Living Image 4.7.1 (PerkinElmer, MA) software. Each unique tissue signal was circled manually and labeled based on anatomical site as mandible or hind limb for both prone and supine images. For limbs, the signal was also designated as being from the right or left side of the mouse.
Signal flux (photons/sec) were calculated for each unique metastatic signal and exported for all ROIs to facilitate analyses between groups.
Study was terminated on Day 78. All BLI endpoint calculations were derived from total bone values. The BLI background signal for this study was measured at 1.20 E+05 p/s. An animal was credited with a partial regression if the BLI signal fell below half the staging BLI signal level. Similarly, a complete regression (CR) was credited if the BLI signal fell below the background level, and a tumor-free survivor was if the BLI signal was below background on last day of imaging (Day 63), with no evidence of disease at necropsy. […]

Where [1] appears, read: 1.5 mg/kg IV Q7D × 4 starting Day 14.
Where [2] appears, read: 1.5 mg/kg IV Q7D × 4 starting Day 21.

Starred links: 1 amine or outer side, 2 acyl side, 3 side chain; linkers in the order of their positions; H or OH if unused. Non-standard residues stand in square brackets, D forms with d. Residues, ends and D or L forms follow the SMILES beside them. *: point of attachment. Dolaproine = CO[C@@H]([C@@H]1CCCN1)[C@@H](C)C(=O)O; Dil = CC[C@H](C)[C@H](NC)[C@@H](CC(=O)O)OC; PABC = O=C(OCc1ccc(N[*:1])cc1)[*:2]; X1 = O=C(CCCC(=O)*)ON1C(=O)CCC1=O; X2 = C[C@@H](N*)[C@@H](O)c1ccccc1; Cit = NC(=O)NCCC[C@H](N)C(=O)O; NMeV = CN[C@H](C(=O)O)C(C)C

Regarding `CC[C@H](C)[C@@H]([C@@H](CC(=O)N1CCC[C@H]1[C@H](OC)[C@@H](C)C(=O)N[C@H](C)[C@@H](O)c1ccccc1)OC)N(C)C(=O)[C@@H](NC(=O)[C@H](C(C)C)N(C)C(=O)OCc1ccc(NC(=O)[C@H](CCCNC(N)=O)NC(=O)[C@@H](NC(=O)CCCC(=O)ON2C(=O)CCC2=O)C(C)C)cc1)C(C)C` [BT5528] (X1-V[Cit][PABC][NMeV]V[Dil][Dolaproine]-X2), under setting [1], the “incidence of partial regressions” value was 60%, the “increased lifespan (ILS)” value came to 177.3%, the “Day 26 T/C” value turned out to be 1% and the tumor growth delay is on record as above 35.1 days. Under setting [2], the “increased lifespan (ILS)” value was determined as 145.5%, the “less incidence of partial regressions than with Day 14 start” value was 40%, the “Day 26 T/C” value worked out at 3.4% and the tumor growth delay is above 35.1 days. The “bone tumor cell burden and survival” value (4 weekly treatment cycles) is “reduced the bone tumor cell burden significantly and extended the survival of the mice”. Moreover, under “mouse, in vivo”, the “mice at the end of the study (D78) without observable (macroscopic) disease” value is on record as 1 mouse.
